Source: patent US20190008920A1, “OPHTHALMIC COMPOSITIONS AND METHODS OF USE” (Ocugen, Inc., priority 2017, published 2019)

Assays:
[1] = ophthalmic solution 5.0%, administered twice daily; cited from earlier work
[2] = brimonidine tartrate + cyclosporine nanoemulsion formulation
Procedure: The partitioning of active pharmaceutical ingredients in oil and aqueous phases of these exemplary nanoemulsion formulations were determined using RP-HPLC methods. […] In nanoemulsion formulation, oil and aqueous phase were separated using ultrafiltration unit by centrifugation process. Quantity of APIs in these oil and aqueous phase was quantified using HPLC method.

| fraction of API partitioned in aqueous phase ([2]; aqueous phase) | fraction of API partitioned in oil phase ([2]; oil phase) | SMILES | symptoms of ocular discomfort and eye dryness compared with placebo [1] |
| --- | --- | --- | --- |
| – | – | CS(=O)(=O)c1cccc(C[C@H](NC(=O)c2c(Cl)cc3c(c2Cl)CCN(C(=O)c2ccc4ccoc4c2)C3)C(=O)O)c1 [Lifitegrast, N-{[2-(1-Benzofuran-6-ylcarbonyl)-5,7-dichloro-1,2,3,4-tetrahydro-6-isoquinolinyl]carbonyl}-3-(methylsulfonyl)-L-phenylalanine] | improve symptoms of ocular discomfort and eye dryness |
| ~70% | ~30% | Brc1c(NC2=NCCN2)ccc2nccnc12 [brimonidine, 5-Bromo-N-(4,5-dihydro-1H-imidazol-2-yl) quinoxalin-6-amine] | – |
